Data taken from publication PMC10175918 (Communications Biology, 2023).
Like-named read-outs stand apart in the source and are kept apart here.

Experiments:
Assay in all cases: TGFα-shedding assay-based GPCR screening with chimeric Gα subunit proteins
Format in all cases: cell-based
Conditions in all cases: 10µM, Favipiravir 100μM
[1] = target: T1, 348 GPCRs (Homo sapiens, UniProt Q86SQ4)
T1 construct: expressed in transfected cells; host or cells: HEK293A
T1 sequence (Q86SQ4 38-1221): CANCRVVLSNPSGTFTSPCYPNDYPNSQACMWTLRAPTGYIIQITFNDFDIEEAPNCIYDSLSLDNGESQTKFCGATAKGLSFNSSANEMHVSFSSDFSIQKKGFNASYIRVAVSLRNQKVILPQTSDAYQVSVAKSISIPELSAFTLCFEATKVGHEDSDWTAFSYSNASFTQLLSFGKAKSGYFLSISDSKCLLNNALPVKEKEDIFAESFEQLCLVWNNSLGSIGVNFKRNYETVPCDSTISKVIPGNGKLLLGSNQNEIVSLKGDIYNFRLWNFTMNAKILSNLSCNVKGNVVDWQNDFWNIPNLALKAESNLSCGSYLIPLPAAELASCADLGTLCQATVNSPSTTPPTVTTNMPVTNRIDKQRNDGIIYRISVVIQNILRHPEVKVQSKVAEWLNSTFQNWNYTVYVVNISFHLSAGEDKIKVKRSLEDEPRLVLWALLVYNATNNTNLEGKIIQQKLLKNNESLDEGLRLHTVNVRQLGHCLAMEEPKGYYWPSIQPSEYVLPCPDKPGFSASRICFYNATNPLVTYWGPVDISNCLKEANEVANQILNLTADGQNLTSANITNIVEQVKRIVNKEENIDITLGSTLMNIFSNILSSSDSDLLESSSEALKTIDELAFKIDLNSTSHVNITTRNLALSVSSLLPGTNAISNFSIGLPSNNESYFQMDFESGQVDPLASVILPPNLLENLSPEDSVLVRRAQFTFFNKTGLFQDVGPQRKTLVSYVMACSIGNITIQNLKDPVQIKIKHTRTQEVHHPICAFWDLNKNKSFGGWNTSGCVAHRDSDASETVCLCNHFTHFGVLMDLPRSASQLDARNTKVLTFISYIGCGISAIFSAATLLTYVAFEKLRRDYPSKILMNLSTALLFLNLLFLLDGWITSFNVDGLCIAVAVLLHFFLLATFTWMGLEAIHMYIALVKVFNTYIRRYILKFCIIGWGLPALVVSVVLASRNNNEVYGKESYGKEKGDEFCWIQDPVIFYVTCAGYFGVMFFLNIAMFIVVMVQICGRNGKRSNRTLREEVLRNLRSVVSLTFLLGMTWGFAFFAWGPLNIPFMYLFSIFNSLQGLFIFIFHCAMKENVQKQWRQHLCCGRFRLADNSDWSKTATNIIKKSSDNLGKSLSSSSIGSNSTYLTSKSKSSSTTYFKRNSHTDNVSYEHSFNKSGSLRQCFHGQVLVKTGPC

[2] = target: T2, 348 GPCRs (Homo sapiens, UniProt Q8TDU6)
T2 construct: expressed in transfected cells; host or cells: HEK293A
T2 sequence (Q8TDU6 1-330): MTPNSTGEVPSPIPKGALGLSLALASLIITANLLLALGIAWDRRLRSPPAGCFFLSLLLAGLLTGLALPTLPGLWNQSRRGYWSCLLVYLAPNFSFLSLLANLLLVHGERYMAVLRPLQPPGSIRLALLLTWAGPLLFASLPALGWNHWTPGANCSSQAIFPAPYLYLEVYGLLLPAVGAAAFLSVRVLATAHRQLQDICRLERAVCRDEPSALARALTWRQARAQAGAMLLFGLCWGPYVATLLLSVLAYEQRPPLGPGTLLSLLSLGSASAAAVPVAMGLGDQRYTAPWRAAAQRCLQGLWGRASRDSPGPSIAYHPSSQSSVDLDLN

[3] = target: T3, 348 GPCRs (Homo sapiens, UniProt P43657)
T3 construct: expressed in transfected cells; host or cells: HEK293A
T3 sequence (P43657 1-344): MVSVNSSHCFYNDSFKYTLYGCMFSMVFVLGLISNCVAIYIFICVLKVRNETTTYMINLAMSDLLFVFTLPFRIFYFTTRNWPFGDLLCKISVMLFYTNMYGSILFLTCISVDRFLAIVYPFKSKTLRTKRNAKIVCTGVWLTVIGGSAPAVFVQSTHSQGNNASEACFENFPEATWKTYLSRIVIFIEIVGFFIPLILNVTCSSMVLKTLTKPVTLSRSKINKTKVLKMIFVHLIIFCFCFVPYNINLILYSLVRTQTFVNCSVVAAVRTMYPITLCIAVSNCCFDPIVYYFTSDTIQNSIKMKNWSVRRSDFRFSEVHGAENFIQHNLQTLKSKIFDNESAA

[4] = target: T4, 348 GPCRs (Homo sapiens, UniProt Q6QNK2)
T4 construct: expressed in transfected cells; host or cells: HEK293A
T4 sequence (Q6QNK2 26-874): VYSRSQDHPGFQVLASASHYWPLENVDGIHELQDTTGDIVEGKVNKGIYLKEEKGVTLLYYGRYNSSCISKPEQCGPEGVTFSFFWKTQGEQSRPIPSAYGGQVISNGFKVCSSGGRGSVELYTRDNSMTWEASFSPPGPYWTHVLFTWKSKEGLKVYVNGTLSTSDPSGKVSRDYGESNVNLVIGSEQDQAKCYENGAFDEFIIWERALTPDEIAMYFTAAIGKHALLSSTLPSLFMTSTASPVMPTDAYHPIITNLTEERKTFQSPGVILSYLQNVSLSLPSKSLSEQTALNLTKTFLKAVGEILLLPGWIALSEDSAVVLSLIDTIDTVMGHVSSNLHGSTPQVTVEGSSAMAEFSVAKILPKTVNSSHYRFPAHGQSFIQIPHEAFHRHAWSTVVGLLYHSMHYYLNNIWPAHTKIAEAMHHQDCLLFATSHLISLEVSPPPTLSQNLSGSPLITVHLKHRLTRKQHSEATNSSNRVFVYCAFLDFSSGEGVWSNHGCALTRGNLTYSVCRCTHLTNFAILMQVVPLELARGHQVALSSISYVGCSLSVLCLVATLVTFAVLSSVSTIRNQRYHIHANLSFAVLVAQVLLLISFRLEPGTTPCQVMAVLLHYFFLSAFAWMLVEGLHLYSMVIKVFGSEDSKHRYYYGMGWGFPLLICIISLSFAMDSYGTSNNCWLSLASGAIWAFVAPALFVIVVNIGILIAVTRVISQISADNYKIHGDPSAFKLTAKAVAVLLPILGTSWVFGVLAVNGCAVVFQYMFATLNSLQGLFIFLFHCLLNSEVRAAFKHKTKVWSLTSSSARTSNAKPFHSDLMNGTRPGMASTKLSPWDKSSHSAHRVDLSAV

[5] = GPR126 (Adhesion G Protein-Coupled Receptor G6 (ADGRG6)), read-out: % GPCR activation compared to TPA
[6] = GPBA (G protein-coupled bile acid receptor 1), read-out: % GPCR activation compared to TPA
[7] = LPAR6 (lysophosphatidic acid receptor 6), read-out: % GPCR activation compared to TPA
[8] = GPR133 (G protein-coupled receptor 133), read-out: % GPCR activation compared to TPA
[9] = read-out: % GPCR activation compared to TPA, GPR126 (Adhesion G Protein-Coupled Receptor G6 (ADGRG6))
[10] = read-out: % GPCR activation compared to TPA, GPBA (G protein-coupled bile acid receptor 1)
[11] = read-out: % GPCR activation compared to TPA, LPAR6 (lysophosphatidic acid receptor 6)
[12] = read-out: % GPCR activation compared to TPA, GPR133 (G protein-coupled receptor 133)

Compound	activation at 100 µM [1, 5]	activation at 10 µM [2, 6]	activation at 10 µM [3, 7]	activation at 100 µM [4, 8]	activation at 100 µM [1, 9]	activation at 10 µM [2, 10]	activation at 10 µM [3, 11]	activation at 100 µM [4, 12]
CCC(CC)COC(=O)[C@H](C)N[P@](=O)(OC[C@H]1O[C@@](C#N)(c2ccc3c(N)ncnn23)[C@H](O)[C@@H]1O)Oc1ccccc1 [remdesivir]					-0.536%	-1.26%	-2.67%	3.45%
CC(C)OC(=O)[C@H](C)N[P@](=O)(OC[C@H]1O[C@@H](n2ccc(=O)[nH]c2=O)[C@](C)(F)[C@@H]1O)Oc1ccccc1 [sofosbuvir]					-2.49%	-0.805%	0.0867%	-82.3%

Continued, in another order:

activation at 100 µM [1, 5]	activation at 10 µM [2, 6]	activation at 10 µM [3, 7]	activation at 100 µM [4, 8]	Compound	activation at 100 µM [1, 9]	activation at 10 µM [2, 10]	activation at 10 µM [3, 11]	activation at 100 µM [4, 12]
-3.47%	-1.79%	-2.57%	3.32%	N#C[C@@]1(c2ccc3c(N)ncnn23)O[C@H](CO)[C@@H](O)[C@H]1O [GS441524]				
-2.03%	0.241%	-2.1%	2.84%	NC(=O)c1nc(F)cnc1O [favipiravir, 6-fluoro-3-hydroxy-2-pyrazinecarboxamide]				
-3.31%	-1.97%	-2.83%	-83.1%	CC(C)C(=O)OC[C@H]1O[C@@H](n2ccc(NO)nc2=O)[C@H](O)[C@@H]1O [molnupiravir]				
